Assay results: paper PMC10175561, “Two single-point mutations in Ankyrin Repeat one drastically change the threshold temperature of TRPV1” (Nature Communications, 2023)

Biological target: T1, axTRPV1 (Ambystoma mexicanum, UniProt A0A5K7X138)
T1 construct: gene TRPV1; full-length cDNA in pGEMHE, expressed in Xenopus oocytes; cloned in the authors' earlier work
T1 sequence (A0A5K7X138 1-858): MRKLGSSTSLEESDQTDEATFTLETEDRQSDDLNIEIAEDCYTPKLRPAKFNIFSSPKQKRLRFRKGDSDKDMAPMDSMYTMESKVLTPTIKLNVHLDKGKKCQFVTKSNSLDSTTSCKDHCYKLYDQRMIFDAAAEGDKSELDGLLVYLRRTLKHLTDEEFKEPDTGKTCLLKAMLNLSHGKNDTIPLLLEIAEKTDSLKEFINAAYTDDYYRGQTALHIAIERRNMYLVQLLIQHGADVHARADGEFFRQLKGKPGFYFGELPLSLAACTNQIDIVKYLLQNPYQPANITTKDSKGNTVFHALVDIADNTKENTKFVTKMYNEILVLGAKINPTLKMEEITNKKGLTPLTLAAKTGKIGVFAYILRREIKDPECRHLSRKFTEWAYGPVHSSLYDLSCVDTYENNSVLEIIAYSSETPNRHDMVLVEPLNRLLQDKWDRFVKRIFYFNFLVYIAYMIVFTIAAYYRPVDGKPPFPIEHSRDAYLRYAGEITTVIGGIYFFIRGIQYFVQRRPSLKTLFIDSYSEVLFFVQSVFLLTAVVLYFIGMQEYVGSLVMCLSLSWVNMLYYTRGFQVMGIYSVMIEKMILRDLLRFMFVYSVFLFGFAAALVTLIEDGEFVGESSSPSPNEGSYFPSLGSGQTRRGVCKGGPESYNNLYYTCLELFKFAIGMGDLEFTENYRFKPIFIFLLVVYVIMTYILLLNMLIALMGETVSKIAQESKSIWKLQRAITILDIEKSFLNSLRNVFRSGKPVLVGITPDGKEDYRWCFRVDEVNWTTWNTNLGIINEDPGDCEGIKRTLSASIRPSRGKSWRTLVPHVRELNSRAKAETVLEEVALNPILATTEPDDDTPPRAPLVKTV
Assay: two-electrode voltage clamp, Xenopus oocytes
Assay type: cell-based
Details: agonist, dose-dependent activation; current at -80 mV; bath pH 7.4

With `COc1cc(CNC(=O)CCCC/C=C/C(C)C)ccc1O` [capsaicin] the “two-electrode voltage clamp, Xenopus oocytes” value was “Capsaicin and acid activated all TRPV1s in a dose-dependent manner”.
